This is an account of results in patent US9212138B2, “Use of derivatives of indoles for the treatment of cancer” (CENTRE NATIONAL DE LA RECHERCHE SCIENTIFIQUE, priority 2009, dated 2015).

As a reminder, the IC50 is the point on the concentration scale where inhibition reaches its midpoint.

The target of the first assay is T1, MKLP-2 (RabK6) (Homo sapiens, UniProt O95235, S2A).
T1 construct: Expression clones for MKLP-21-519 (coding for residues 1 to 519) were obtained as follows; His-tag; made in house; host or cells: E. coli BL21(DE3)
T1 sequence (O95235 1-519 S2A limits assumed): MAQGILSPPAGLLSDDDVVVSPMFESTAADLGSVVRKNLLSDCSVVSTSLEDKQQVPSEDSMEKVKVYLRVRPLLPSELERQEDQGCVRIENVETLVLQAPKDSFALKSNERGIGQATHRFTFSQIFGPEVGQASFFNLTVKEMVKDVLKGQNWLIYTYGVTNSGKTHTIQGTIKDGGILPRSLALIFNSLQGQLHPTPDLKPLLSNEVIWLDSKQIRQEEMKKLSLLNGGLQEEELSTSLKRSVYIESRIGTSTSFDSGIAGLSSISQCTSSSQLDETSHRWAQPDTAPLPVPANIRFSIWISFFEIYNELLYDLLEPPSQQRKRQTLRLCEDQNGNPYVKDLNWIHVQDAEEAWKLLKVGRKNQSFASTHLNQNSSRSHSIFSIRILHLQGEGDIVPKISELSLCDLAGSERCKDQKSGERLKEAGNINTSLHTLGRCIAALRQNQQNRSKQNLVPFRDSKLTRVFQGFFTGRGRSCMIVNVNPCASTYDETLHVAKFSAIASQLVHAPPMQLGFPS
The assay is described as follows: biochemical.
Conditions: not given
Here is the method: All experiments were performed at room temperature using a 96-well Sunrise photometer (Tecan, Maennedorf, Switzerland) at a final volume of 100 μl per well.
Steady-state ATPase rates were measured using the pyruvate kinase/lactate dehydrogenase-linked assay in buffer A25A (25 mM potassium ACES, pH 6.9, 2 mM MgAc2, 2 mM Na-EGTA, 0.1 mM Na-EDTA, 1 mM β-mercaptoethanol) supplemented with 1 mM MgATP; 2 mM PEP; 0.25 mM NADH; 3-10 μg/ml pyruvate kinase; 3 μg/ml lactate dehydrogenase and 8 μM taxol.
The data were analyzed using Kaleidagraph 3.0 (Synergy Software, Reading, Pa.) and Microsoft Excel to obtain the kinetic variables.
When necessary, the inhibitor concentrations were adapted depending on the initial IC50 value. Experiments were performed in triplicate and averaged data points are shown with error bars±SD.
With `COc1ccc2[nH]cc(C(C)=Cc3cccnc3)c2c1` (racemic) [Example 59, 5-methoxy-3-(1-(pyridin-3-yl)prop-1-en-2-yl)-1H-indole], the IC50 was < 5 µM.

On to `N#C/C(=C\c1cccnc1)c1c[nH]c2ccc(F)cc12` [Example 25, (Z)-2-(5-fluoro-1H-indol-3-yl)-3-pyridin-3-yl-acrylonitrile], for which the IC50 was < 5 µM.

With `COc1ccc2c(/C(C#N)=C/c3cccnc3)c[nH]c2c1` [Example 26, (Z)-2-(6-methoxy-1H-indol-3-yl)-3-pyridin-3-yl-acrylonitrile], the IC50 lay in the range of 5 to 10 µM.

Turning to `COc1cccc2[nH]cc(/C(C#N)=C/c3cccnc3)c12` [Example 27, (Z)-2-(4-methoxy-1H-indol-3-yl)-3-pyridin-3-yl-acrylonitrile], the IC50 lay within 10 to 20 µM.

As to `COc1ccc2[nH]cc(/C(C#N)=C/c3ccc(F)nc3)c2c1` [Example 28, (Z)-3-(6-fluoropyridin-3-yl)-2-(5-methoxy-1H-indol-3-yl)-acrylonitrile], the IC50 is < 5 µM.

In the case of `N#C/C(=C\c1cccnc1)c1c[nH]c2ccc(O)cc12` [Example 29, (Z)-2-(5-hydroxy-1H-indol-3-yl)-3-pyridin-3-yl-acrylonitrile], the IC50 is < 5 µM.

On to `COc1ccc2[nH]cc(/C(C#N)=C/c3cccc(C#N)c3)c2c1` [Example 30, (Z)-3-[2-cyano-2-(5-methoxy-1H-indol-3-yl)-vinyl]-benzonitrile], for which the half-maximal inhibitory concentration (IC50) is < 5 µM.

On to `COc1ccc2[nH]cc(/C(C#N)=C/c3cnccc3C)c2c1` [Example 31, (Z)-2-(5-methoxy-1H-indol-3-yl)-3-(4-methyl-pyridin-3-yl)-acrylonitrile], for which the IC50 was < 5 µM.

As to `COc1ccc2[nH]cc(/C(C#N)=C/c3cccc(C(N)=O)c3)c2c1` [Example 32, (Z)-3-[2-cyano-2-(5-methoxy-1H-indol-3-yl)-vinyl]-benzamide], the IC50 is 10 to 20 µM.

`COc1ccc2[nH]cc(/C(C#N)=C/c3ccc[n+](C)c3)c2c1` [Example 33, (Z)-3-[2-cyano-2-(5-methoxy-1H-indol-3-yl)-vinyl]-1-methylpyridinium iodide]: the IC50 was in the range of 10 to 20 µM.

On to `CCCc1nc2c(ccc3[nH]cc(/C(C#N)=C/c4cccnc4)c32)o1` [Example 34, (Z)-2-(2-propyl-6H-oxazolo[4,5-e]indol-8-yl)-3-(pyridin-3-yl)acrylonitrile], for which the IC50 is > 50 µM.

For the compound `COc1cc(-c2ccc3[nH]cc(/C(C#N)=C/c4cccnc4)c3c2)cc(OC)c1OC` [Example 38, (Z)-3-(pyridin-3-yl)-2-(5-(3,4,5-trimethoxyphenyl)-1H-indol-3-yl)-acrylonitrile], the IC50 fell in the range of 5 to 10 µM.

Consider `N#C/C(=C\c1cccnc1)c1c[nH]c2ccc(-c3ccc(F)cc3)cc12` [Example 39, (Z)-2-(5-(4-fluorophenyl)-1H-indol-3-yl)-3-(pyridin-3-yl)-acrylonitrile], for which the half-maximal inhibitory concentration (IC50) is 10 to 20 µM.

For `COC(=O)Nc1ccc2[nH]cc(/C(C#N)=C/c3cccnc3)c2c1` [Example 41, (Z)-methyl 3-(1-cyano-2-(pyridin-3-yl)vinyl)-1H-indol-5-ylcarbamate], the 50% inhibitory concentration (IC50) was < 5 µM.

With `N#C/C(=C\c1cccc([N+](=O)[O-])c1)c1c[nH]c2ccccc12` [Example 42, (Z)-2-(1H-indol-3-yl)-3-(3-nitro-phenyl)-acrylonitrile], the concentration for half-maximal inhibition (IC50) was > 50 µM.

As for `COc1ccc2[nH]cc(/C(C#N)=C/c3cccc([N+](=O)[O-])c3)c2c1` [Example 43, (Z)-2-(5-methoxy-1H-indol-3-yl)-3-(3-nitro-phenyl)-acrylonitrile], the IC50 is > 50 µM.

Turning to `N#C/C(=C\c1cccc(N)c1)c1c[nH]c2ccccc12` [Example 44, (Z)-3-(3-amino-phenyl)-2-(1H-indol-3-yl)-acrylonitrile], the IC50 is > 50 µM.

Regarding `COc1ccc2[nH]cc(/C(C#N)=C/c3cccc(N)c3)c2c1` [Example 45, (Z)-3-(3-amino-phenyl)-2-(5-methoxy-1H-indol-3-yl)-acrylonitrile], the IC50 is > 50 µM.

As for `COc1cncc(/C=C(\C#N)c2c[nH]c3ccc(OC)cc23)c1` [Example 46, (Z)-2-(5-methoxy-1H-indol-3-yl)-3-(5-methoxy-pyridin-3-yl)-acrylonitrile], the IC50 fell in the range of 10 to 20 µM.

With `COc1ccc2[nH]cc(/C(C#N)=C/c3cnccc3Cl)c2c1` [Example 47, (Z)-3-(4-chloro-pyridin-3-yl)-2-(5-methoxy-1H-indol-3-yl)-acrylonitrile], the IC50 is 5 to 10 µM.

Regarding `COc1ccc2[nH]cc(/C(C#N)=C/c3cccnc3F)c2c1` [Example 48, (Z)-3-(2-fluoropyridin-3-yl)-2-(5-methoxy-1H-indol-3-yl)-acrylonitrile], the half-inhibitory concentration (IC50) is < 5 µM.

As for `COc1ccc2[nH]cc(/C(C#N)=C/c3ccc(Cl)nc3)c2c1` [Example 49, (Z)-3-(6-chloropyridin-3-yl)-2-(5-methoxy-1H-indol-3-yl)-acrylonitrile], the IC50 was in the range of 5 to 10 µM.

Consider `COc1ccc2[nH]cc(/C(C#N)=C/c3ccsc3)c2c1` [Example 50, (Z)-2-(5-methoxy-1H-indol-3-yl)-3-thiophen-3-yl-acrylonitrile], for which the IC50 is > 50 µM.

Regarding `COc1ccc2[nH]cc(/C(C#N)=C/c3cnn(C)c3)c2c1` [Example 51], the IC50 is > 50 µM.

Staying with this assay, now noted: basal ATPase activity, absence of MTs; read-out: RabK6 basal IC50 X.
For `N#C/C(=C\c1ccccn1)c1c[nH]c2ccccc12` [Example 3, (Z)-2-(1H-indol-3-yl)-3-pyridin-2-yl-acrylonitrile], the concentration for half-maximal inhibition (IC50) was > 50 µM.

As to `COc1ccc2[nH]cc(/C(C#N)=C/c3cccnc3)c2c1` [Example 4, (Z)-2-(5-methoxy-1H-indol-3-yl)-3-pyridin-3-yl-acrylonitrile], the IC50 is < 5 µM.

For the compound `N#C/C(=C\c1cccnc1)c1c[nH]c2ccc(OCc3ccccc3)cc12` [Example 5, (Z)-2-(5-benzyloxy-1H-indol-3-yl)-3-pyridin-3-yl-acrylonitrile], the IC50 was > 50 µM.

On to `COc1ccc2[nH]cc(/C(C#N)=C/c3ccccn3)c2c1` [Example 6, (Z)-2-(5-methoxy-1H-indol-3-yl)-3-pyridin-2-yl-acrylonitrile], for which the 50% inhibitory concentration (IC50) is 10 to 20 µM.

As for `COc1ccc2[nH]cc(/C(C#N)=C/c3cc(OC)c(O)c(OC)c3)c2c1` [Example 7, (Z)-3-(4-hydroxy-3,5-dimethoxy-phenyl)-2-(5-methoxy-1H-indol-3-yl)-acrylonitrile], the half-inhibitory concentration (IC50) lay in the range of 20 to 50 µM.

As for `N#C/C(=C\c1ccccc1)c1c[nH]c2ccccc12` [Example 9, (Z)-2-(1H-indol-3-yl)-3-phenyl-acrylonitrile], the IC50 fell in the range of 20 to 50 µM.

Take `N#C/C(=C\c1ccc2c(c1)OCO2)c1c[nH]c2ccccc12` [Example 11, (Z)-3-benzo[1,3]dioxol-5-yl-2-(1H-indol-3-yl)-acrylonitrile]: the half-inhibitory concentration (IC50) was in the range of 10 to 20 µM.

As to `COc1cc(/C=C(\C#N)c2c[nH]c3ccc(OC)cc23)cc(OC)c1` [Example 14, (Z)-3-(3,5-dimethoxy-phenyl)-2-(5-methoxy-1H-indol-3-yl)-acrylonitrile], the IC50 lay in the range of 5 to 10 µM.

Turning to `N#C/C(=C\c1cncnc1)c1c[nH]c2ccccc12` [Example 15, (Z)-2-(1H-indol-3-yl)-3-pyrimidin-5-yl-acrylonitrile], the IC50 lay in the range of 10 to 20 µM.

As to `COc1ccc2[nH]cc(/C(C#N)=C/c3cncnc3)c2c1` [Example 16, (Z)-2-(5-methoxy-1H-indol-3-yl)-3-pyrimidin-5-yl-acrylonitrile], the IC50 was 5 to 10 µM.

Take `COc1ccc2[nH]cc(C(C#N)Cc3cccnc3)c2c1` (stereo not shown) [Example 18, 2-(5-methoxy-1H-indol-3-yl)-3-pyridin-3-yl-propionitrile]: the half-inhibitory concentration (IC50) lay within 20 to 50 µM.

Turning to `CC(=O)Oc1ccc2[nH]cc(/C(C#N)=C/c3cccnc3)c2c1` [Example 20, 3-(1-cyano-2-(pyridin-3-yl)vinyl)-1H-indol-5-yl-acetate], the 50% inhibitory concentration (IC50) was < 5 µM.

For the compound `COCC(=O)Oc1ccc2[nH]cc(/C(C#N)=C/c3cccnc3)c2c1` [Example 21, 3-(1-cyano-2-(pyridin-3-yl)vinyl)-1H-indol-5-yl-methoxyacetate], the concentration for half-maximal inhibition (IC50) was 5 to 10 µM.

For the compound `CCOc1ccc2[nH]cc(/C(C#N)=C/c3cccnc3)c2c1` [Example 22, (Z)-2-(5-ethoxy-1H-indol-3-yl)-3-pyridin-3-yl-acrylonitrile], the IC50 is < 5 µM.

`CC(C)Oc1ccc2[nH]cc(/C(C#N)=C/c3cccnc3)c2c1` [Example 23, (Z)-2-(5-isopropoxy-1H-indol-3-yl)-3-pyridin-3-yl-acrylonitrile]: the IC50 is < 5 µM.

Regarding `N#C/C(=C\c1cccnc1)c1c[nH]c2ccc(Cl)cc12` [Example 24, (Z)-2-(5-chloro-1H-indol-3-yl)-3-pyridin-3-yl-acrylonitrile], the concentration for half-maximal inhibition (IC50) was < 5 µM.
